Results as given in US11590131B2, “Compositions and methods for treating galactosemia” (Applied Therapeutics, Inc., priority 2017, dated 2023).
“Also recorded” adds a separate entry of the source.

Columns and labels:
Assay type in all cases: in vivo, rat
GALT-null rats [1] = test: Qualitative visual scoring of cataracts (0-3 scale) in GALT null rats
Text: Rats, with impaired GALT activity due to genetic modification (GALT null), were used as a model of galactosemia. This rat model mirrors human classic galactosemia in some important ways. The rats develop physical characteristics including cataracts follow exposure to galactose, growth abnormalities, and neurological/cognitive abnormalities, which mirror abnormalities in human patients and can be quantified. The rats also have biochemical characteristics that mirror human disease including elevated levels of galactose and galactose metabolites, including galactitol and Gal1), in blood and tissues. Rats were generated from heterozygote crosses (heterozygous M3 GALT null strain representing classic galactosemia). […] Aldose reductase inhibitor (Compound A or Compound B), suspended in Gerber formula, was administered orally at about 12-hour intervals (BID) at 1 mg inhibitor/gram pup weight (=1000 mg/kg) for each dose. Before use, drug was stored at −20° C. in a bottle or tubes wrapped in aluminum foil. Just before each feeding an aliquot of drug was re-suspended in formula, mixed well, and pipetted into individual tubes to be fed to the pups (volume calculated per pup weight measured that morning). All placebo and drug tubes of formula were warmed to 37° C. immediately before feeding. Placebo and drug were fed to pups by hand using a syringe and tubing. Pups receiving drug also were fed a small additional volume of Gerber formula that had been used to wash the tube and syringe immediately after the drug feeding. To motivate eating, pups were removed from their mother (to prevent nursing) and maintained in nests in a humidified incubator for about 2 hours at 35-37° C. prior to each feeding. […] In the first part of the study, cataracts were scored visually by a blinded rater on a 3 point scale, with zero being no cataracts present (absent), 1 being mild, 2 being moderate and 3 being severe cataracts present. In the second part of the study, eyes were dissected after euthanization, photographed via digital camera, and cataracts were quantified via software

GALT-null rats [2] = test: Digital photographic quantification of cataracts in GALT null rats
Text: Rats, with impaired GALT activity due to genetic modification (GALT null), were used as a model of galactosemia. This rat model mirrors human classic galactosemia in some important ways. The rats develop physical characteristics including cataracts follow exposure to galactose, growth abnormalities, and neurological/cognitive abnormalities, which mirror abnormalities in human patients and can be quantified. The rats also have biochemical characteristics that mirror human disease including elevated levels of galactose and galactose metabolites, including galactitol and Gal1), in blood and tissues. Rats were generated from heterozygote crosses (heterozygous M3 GALT null strain representing classic galactosemia). […] Just before each feeding an aliquot of drug was re-suspended in formula, mixed well, and pipetted into individual tubes to be fed to the pups (volume calculated per pup weight measured that morning). […] In the first part of the study, cataracts were scored visually by a blinded rater on a 3 point scale, with zero being no cataracts present (absent), 1 being mild, 2 being moderate and 3 being severe cataracts present. In the second part of the study, eyes were dissected after euthanization, photographed via digital camera, and cataracts were quantified via software

GALT-null rats [3] = test: Metabolite levels (galactitol, galactose, Gal1P) by HPLC in liver, brain and plasma of GALT null rats
Text: Rats, with impaired GALT activity due to genetic modification (GALT null), were used as a model of galactosemia. This rat model mirrors human classic galactosemia in some important ways. The rats develop physical characteristics including cataracts follow exposure to galactose, growth abnormalities, and neurological/cognitive abnormalities, which mirror abnormalities in human patients and can be quantified. The rats also have biochemical characteristics that mirror human disease including elevated levels of galactose and galactose metabolites, including galactitol and Gal1), in blood and tissues. Rats were generated from heterozygote crosses (heterozygous M3 GALT null strain representing classic galactosemia). […] Aldose reductase inhibitor (Compound A or Compound B), suspended in Gerber formula, was administered orally at about 12-hour intervals (BID) at 1 mg inhibitor/gram pup weight (=1000 mg/kg) for each dose. Before use, drug was stored at −20° C. in a bottle or tubes wrapped in aluminum foil. Just before each feeding an aliquot of drug was re-suspended in formula, mixed well, and pipetted into individual tubes to be fed to the pups (volume calculated per pup weight measured that morning). All placebo and drug tubes of formula were warmed to 37° C. immediately before feeding. Placebo and drug were fed to pups by hand using a syringe and tubing. Pups receiving drug also were fed a small additional volume of Gerber formula that had been used to wash the tube and syringe immediately after the drug feeding. To motivate eating, pups were removed from their mother (to prevent nursing) and maintained in nests in a humidified incubator for about 2 hours at 35-37° C. prior to each feeding. Separate syringes were used for placebo and drug. Pups were wrapped in fleece during feeding, which lasted about 2-5 minutes each. Lysates for metabolite analysis were prepared as follows: 50-100 mg pieces of previously frozen liver or brain were homogenized by grinding for 30 seconds using a Teflon micropestle and handheld micropestle motor (Kimble Chase Life Science and Research Products LLC) in 125 μl ice-cold HPLC-grade water. Metabolites were separated and quantified by HPLC (See, e.g., Daenzer, et al. Dis. Model Mech. 2016, 9(11):1375-1382)). Galactitol, inositol, and glucose were quantified using the same HPLC conditions described to quantify galactose by (Daenzer, 2016). Metabolite levels were normalized to the total area of peaks detected by the relevant column and elution run for that sample, minus the peaks that most distinguished homozygous M3/M3 samples from controls. Specifically, metabolites separated on the MA1 column (galactitol, inositol, galactose and glucose) were normalized to total peak area minus galactose and galactitol, and metabolites separated on the PA10 column (galactose-1P) were normalized to total peak area minus galactose and galactose-1P.

Row | SMILES | qualitative assessment of cataracts (0-3 scale) (GALT-null rats [1]; day 10 of life, FIG. 2C) | qualitative assessment of cataracts (0-3 scale) (GALT-null rats [1]; day 22 of life, placebo average severity 1.5, FIG. 2D) | digital quantitative analysis of cataracts (score) (GALT-null rats [2]; GALT null rats, day 22 of life, FIG. 2B) | galactitol levels in liver, brain and plasma (GALT-null rats [3]; day 10 of life, FIG. 3A) | galactose levels (GALT-null rats [3]; day 10 of life, FIG. 3B) | Gal1P levels (GALT-null rats [3]; day 10 of life, FIG. 3C) | qualitative assessment of cataracts (scale of 0-3) (GALT-null rats [1]; day nine of life, versus placebo, FIG. 2A) | cataracts (qualitative initial study and digitally quantified follow-on study) (GALT-null rats [2]; GALT null rats, 1,000 mg/kg BID or 250 mg/kg BID in follow-on study) | reduction of brain galactitol levels compared to placebo (GALT-null rats [3]; day 9) | reduction of liver galactitol levels compared to placebo (GALT-null rats [3]; day 9) | reduction of brain galactitol levels compared to placebo (GALT-null rats [3]; day 15-18) | reduction of liver galactitol levels compared to placebo (GALT-null rats [3]; day 15-18)
1 | O=C(O)Cc1nn(Cc2cc3cc(C(F)(F)F)ccc3s2)c(=O)c2cscc12 [Compound B] | had cataracts | did not have cataracts; also recorded: cataracts were not present | the same score as wild type rats | normal or near normal levels | did not further increase | did not further increase |  |  |  |  |  | 
2 | O=C(O)Cc1nn(Cc2nc3cc(C(F)(F)F)ccc3s2)c(=O)c2nccnc12 [Compound A] |  |  |  |  |  |  | no cataracts | reduced cataracts | 40% | 87% | 57% | 57%
